The data set addresses hERG (Homo sapiens, UniProt Q12809). Nature of the data set: hERG liability. The format is in vitro ADME. How it is done: Structure Activity Relationship (SAR) and comparison of effect on T.gondii and HFF enzyme activity. […] The MDCK-MDR1 Permeability Assay was also performed. […] These were measured by Chem Partners.
A general note: hERG is a cardiac potassium channel; its block is linked to QT prolongation.

Chain of hERG (Q12809 whole entry): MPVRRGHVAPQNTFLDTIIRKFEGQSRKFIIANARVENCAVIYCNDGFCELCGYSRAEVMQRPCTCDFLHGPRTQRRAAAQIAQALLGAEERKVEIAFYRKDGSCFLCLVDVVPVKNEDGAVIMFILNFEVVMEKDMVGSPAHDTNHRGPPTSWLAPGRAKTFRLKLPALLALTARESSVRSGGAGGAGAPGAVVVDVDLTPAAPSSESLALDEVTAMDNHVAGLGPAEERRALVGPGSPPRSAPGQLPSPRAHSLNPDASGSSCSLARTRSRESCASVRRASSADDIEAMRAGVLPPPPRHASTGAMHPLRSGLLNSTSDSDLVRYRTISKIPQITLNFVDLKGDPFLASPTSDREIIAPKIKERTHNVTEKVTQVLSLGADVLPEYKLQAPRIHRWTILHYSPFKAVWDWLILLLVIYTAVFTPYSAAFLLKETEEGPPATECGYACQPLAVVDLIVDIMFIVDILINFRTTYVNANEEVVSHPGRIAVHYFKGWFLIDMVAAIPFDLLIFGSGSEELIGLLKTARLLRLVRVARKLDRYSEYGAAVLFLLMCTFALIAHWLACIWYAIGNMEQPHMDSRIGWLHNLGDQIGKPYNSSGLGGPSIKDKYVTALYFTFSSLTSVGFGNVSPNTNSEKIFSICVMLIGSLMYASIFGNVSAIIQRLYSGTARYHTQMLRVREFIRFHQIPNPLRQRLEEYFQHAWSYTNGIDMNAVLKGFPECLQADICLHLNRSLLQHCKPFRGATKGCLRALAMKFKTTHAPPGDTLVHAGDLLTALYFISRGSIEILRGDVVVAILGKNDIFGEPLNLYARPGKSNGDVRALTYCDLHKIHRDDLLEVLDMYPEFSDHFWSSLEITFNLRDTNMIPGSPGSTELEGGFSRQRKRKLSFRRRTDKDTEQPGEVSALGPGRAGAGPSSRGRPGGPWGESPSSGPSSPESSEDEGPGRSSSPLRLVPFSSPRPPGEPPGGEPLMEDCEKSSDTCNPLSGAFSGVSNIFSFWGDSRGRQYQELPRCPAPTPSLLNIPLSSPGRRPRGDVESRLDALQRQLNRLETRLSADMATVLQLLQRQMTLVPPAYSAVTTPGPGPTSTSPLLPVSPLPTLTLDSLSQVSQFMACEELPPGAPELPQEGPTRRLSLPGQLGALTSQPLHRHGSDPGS

As for `Cc1[nH]c2c(c(=O)c1-c1ccc(Oc3ccc(OC(F)(F)F)cc3)cc1)CCCC2` [JAG021, 2-methyl-3-(4-(4-(trifluoromethoxy)phenoxy)phenyl)-5,6,7,8-tetrahydroquinolin-4-one], the hERG liability result is “no hERG liability”.

The values are drawn from patent publication US20230181564A1, “Potent Tetrahydroquinolone Eliminates Apicomplexan Parasites” (The University of Chicago, priority 2020, published 2023).
